Data set [1] addresses T1, 5-HT M-receptor (Oryctolagus cuniculus, UniProt A0A5F9C9J3).
T1 construct: determining their pA2 values in the isolated rabbit heart; from tissue; host or cells: isolated rabbit heart (receptor on the cardiac neurones)
T1 sequence (A0A5F9C9J3 1-494): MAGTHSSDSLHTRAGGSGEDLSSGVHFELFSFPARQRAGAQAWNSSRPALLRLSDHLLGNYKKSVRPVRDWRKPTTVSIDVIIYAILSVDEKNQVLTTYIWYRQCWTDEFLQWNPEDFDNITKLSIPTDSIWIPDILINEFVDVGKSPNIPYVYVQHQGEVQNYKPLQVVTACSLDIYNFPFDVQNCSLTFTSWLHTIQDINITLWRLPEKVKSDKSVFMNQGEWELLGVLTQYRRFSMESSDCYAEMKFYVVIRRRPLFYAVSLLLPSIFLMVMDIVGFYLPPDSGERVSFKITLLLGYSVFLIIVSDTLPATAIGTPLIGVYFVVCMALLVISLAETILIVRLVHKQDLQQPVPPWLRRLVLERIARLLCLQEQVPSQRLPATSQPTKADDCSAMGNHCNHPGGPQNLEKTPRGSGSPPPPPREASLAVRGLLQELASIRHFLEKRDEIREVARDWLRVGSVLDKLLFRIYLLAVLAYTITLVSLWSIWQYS
Description: pA2 against 5-HT in isolated rabbit heart. The format is cell-based. How it is done: (§1) The activity of the compounds against 5-HT can be assessed by determining their pA2 values in the isolated rabbit heart as described by J. R. Fozard et al, Eur. J. Pharmacol., 59, 195-210 (1979). In the method described, the molar concentration of antagonist which reduces the effects of twice the ED50 of 5-HT to that of the ED50 in the absence of antagonist is determined. The pA2 value is the negative logarithm of said molar concentrations.

In the next data set the test system is guinea-pig taenia caeci. Description: Inhibition of standard response to calcium, guinea-pig taenia caeci. The format is cell-based. The following applies: Cavia porcellus; guinea-pig taenia caeci in potassium-depolarized Tyrode solution, agonist calcium; read-out: Concentration to inhibit standard response to stimulants by 50% (IC50). An excerpt: (§2) A selection of classical in vitro pharmacological test preparations (rat uterus, rat fundus, guinea-pig ileum, guinea-pig taenia caeci) were set up according to well-established procedures (see "Pharmacological Experiments on Isolated Preparations" Staff of the Department of Pharmacology, University of Edinburgh, Livingstone, Edinburgh 1970). Various spasmogens were used to elicit contraction of these tissues though mechanisms other than the 5-HT "M" receptor. The concentrations of tropyl 3,5-dimethoxybenzoate (A), tropyl 3,5-dimethylbenzoate (B) and tropyl 3,5-dichlorobenzoate (C) which reduced the effects of a submaximal dose of agonist by 50% were determined (IC50). The results are set forth in Table VI below in which the compounds are identified by the reference letters used above.
*In potassiumdepolarized Tyrode solution

In data set [2] the test system is guinea-pig ileum. Briefly: Inhibition of standard response to acetylcholine, guinea-pig ileum. The format is cell-based. The following applies: Cavia porcellus, agonist acetylcholine, read-out: Concentration to inhibit standard response to stimulants by 50% (IC50).
Text: as §2

Data set [3] deals with migraine or cluster headaches. Briefly: Pilot study of intravenous tropyl 3,5-dichlorobenzoate in patients with migraine or cluster headaches. The format is in vivo. An excerpt:
Pilot Study of Tolerance To Intravenous Tropyl 3,5-Dichlorobenzoate in Patients With Migraine or Cluster Headaches
This study was designed to evaluate tolerance and, if possible, efficacy of intravenous tropyl 3,5-dichlorobenzoate in patients with migraine or cluster headaches.
Eight patients (4 males), aged 27-47 with known headache disorders of 5-27 years duration (see Table VII) took part in the study but Patients Nos. 2 and 4 had cluster not migraine headaches and the cause of headaches in Patient No. 6 was unknown.
Tropyl 3,5-dichlorobenzoate was provided as a sterile solution, 1 mg/ml; the desired dose to be diluted in 10 ml normal saline for intravenous infusion over a 2 minute period. No other therapy was taken for at least 24 hours before treatment or during the course of therapy.

The next data set is described as follows: LD50 in the mouse. The format is in vivo. The following applies: in vivo, mouse.
Another data set relates to mouse. Briefly: LD50 in the mouse. The format is in vivo. The following applies: as shown by LD50 values in the mouse and rat.
The subject of data set [4] is guinea-pig ileum. Briefly: Inhibition of standard response to histamine, guinea-pig ileum. To be noted: Cavia porcellus, agonist histamine, read-out: Concentration to inhibit standard response to stimulants by 50% (IC50). The format is cell-based.
Text: as §2

For data set [5], the system named is rat uterus. Briefly: Inhibition of standard response to 5-HT, rat uterus. To be noted: agonist 5-HT, read-out: Concentration to inhibit standard response to stimulants by 50% (IC50). The format is cell-based.
Text: as §2

The subject of data set [6] is rat fundus. Description: Inhibition of standard response to acetylcholine, rat fundus. The format is cell-based. The following applies: agonist acetylcholine, read-out: Concentration to inhibit standard response to stimulants by 50% (IC50).
Text: as §2

In data set [7] the test system is rat fundus. Description: Inhibition of standard response to 5-HT, rat fundus. The following applies: agonist 5-HT, read-out: Concentration to inhibit standard response to stimulants by 50% (IC50). The format is cell-based.
Text: as §2

For data set [8], the target named is T2, rabbit heart (5-HT M receptor) (Oryctolagus cuniculus, UniProt A0A5F9C9J3).
T2 construct: RABBIT HEART; from tissue; host or cells: rabbit heart
T2 sequence (A0A5F9C9J3 1-494): T1 sequence (A0A5F9C9J3 1-494)
Briefly: Inhibition of standard response to 5-HT, rabbit heart. The format is cell-based. The procedure:
as §1, §2

The subject of data set [9] is Von Bezold-Jarisch Reflex (5-HT M-receptor). Description: Antagonism of the Von Bezold-Jarisch reflex evoked by 5-HT in the anaesthetized rat. The format is in vivo, rat (male Sprague-Dawley). To be noted: comparison in words, i.v. An excerpt:
The activity of these compounds against 5-HT can be assessed in vivo by measurement of the effect of the compound on the Von Bezold-Jarisch Reflex induced by 5-HT injected intravenously into the rat (A. S. Paintal, Physiol. Rev. 53, 159-227, 1973). The transient caridac slowing arises from an increased afferent vagus activity arising from stimulation by 5-HT of sensory afferent fibres in and around the heart (see Example 3).
Antagonism of the Von Bezold-Jarisch reflex evoked by 5-HT in the anaesthetized rat was measured for tropyl 3,5-dimethoxybenzoate (A), tropyl 3,5-dimethylbenzoate (B) and tropyl 3,5-dichlorobenzoate (C) using the following method.
Male Sprague-Dawley rats weighing 250-300 g are anaesthetized with urethane, 1.25 g/kg injected intraperitoneally and set up for recording blood pressure and heart rate as described in J. R. Fozard et al, J. Cardiovas. Pharmacol. 2, 229-245 (1980). A submaximal dose of 5-HT ([…]) is given repeatedly into the cannulated jugular vein and changes in heart rate are quantified. Antagonists are given intravenously and the doses required to just inhibit the response to 5-HT (threshold dose) or to inhibit the response to 5-HT by 50% (ED50) are determined.

The next data set is described as follows: LD50 in the rat. The following applies: in vivo, iv.
Data set [10] concerns rat uterus. Briefly: Inhibition of standard response to oxytocin, rat uterus. The format is cell-based. The following applies: agonist oxytocin, read-out: Concentration to inhibit standard response to stimulants by 50% (IC50).
Text: as §2

For data set [11], the target named is T1, 5-HT M-receptor. To be noted: cited from earlier work.
Another data set relates to acute migraine attack. To be noted: slow intravenous injection, 10 mg; J. B. Hughes, Med. J. Aust. 1977; cited from earlier work.
Data set [12] has as its system guinea-pig ileum. Briefly: Inhibition of standard response to carbachol, guinea-pig ileum. The format is cell-based. To be noted: Cavia porcellus, carbachol agonist instead of acetylcholine, read-out: Concentration to inhibit standard response to stimulants by 50% (IC50).
Text: as §2
**Carbachol agonist instead of acetylcholine

[13] abbreviates: Patient 6, i.v., after 4 mg dose.
[14] abbreviates: Patient 8, i.v., first day of 9 mg.

Read-outs that look alike come from different tables or passages of the source. Some results are limits rather than exact numbers.

For `CN1[C@@H]2CC[C@H]1C[C@@H](OC(=O)c1cc(Cl)cc(Cl)c1)C2` [tropyl 3,5-dichlorobenzoate], the Kb at 5-HT M-receptor [1] is 0.000501 µM. For the same compound, the IC50 in the data set with guinea-pig taenia caeci is 28.6 µM; with guinea-pig ileum [2], 8.05 µM; in the data set on guinea-pig ileum [4] it was 3.68 µM; in the data set with rat uterus [5] it was 25.4 µM; in the data set with rat fundus [6], 12.4 µM; in the data set with rat fundus [7] it was > 50.9 µM. Moreover, the IC50 was 0.00082 µM in data set [8] and > 50.9 µM in the data set on rat uterus [10]. Besides, the response entry in data set [3] (Patient 1, i.v. 1 mg, then 1 hour later, 2 mg) is reported as “no effect on headache or nausea”; in data set [3] (Patient 2 (cluster headache), i.v. 1 mg), “no effect”; in [3] (Patient 3, i.v. 3 mg), “no effect”; in [3] (Patient 4 (cluster headache), i.v. 3 mg), “no effect”; in data set [3] (Patient 5, i.v. 5 mg), “no effect”; in [3] (Patient 7, i.v. 3 mg × 1 day, 5 mg × 2 days, 7 mg × 1 day) it was “no effect”. Moreover, the “period over which reduction in headache intensity lasted” value in data set [3] (Patient 6, i.v.) is reported as 21/2. In addition, the headache reduction result in data set [3] (Patient 6, i.v. 3 mg single doses) is “slight reduction in their bilateral headache”; in data set [3] (Patient 6, i.v. 4 mg bid), “further amelioration”. Further, the “response with increased doses” value in data set [3] (Patient 6, i.v. 5 mg bid × 2 days, then 6 mg bid × 11 days) is “no greater effect”. Moreover, in data set [3] (setting [13]), the “duration of reduction of pain intensity” value lay in the range of 4 to 8 h. The “onset of reduction of pain intensity” value in [3] (setting [13]) was ≤ 30 min. Besides, the “reduction of pain intensity” value in [3] (Patient 6, i.v., within 30 minutes after 4 mg dose) is reported as 70-80%. Moreover, in [3] (Patient 8, after stopping i.v. therapy), the “return of headache to pretreatment intensity after stopping therapy” value was in the range of 6 to 7 days. Further, in [3] (Patient 8, i.v. 3 mg), the reduction of pain result was “about 30%”. Further, the “response during increasing doses” value in data set [3] (Patient 8, i.v. 6 mg × 1 day, 7 mg × 2 days, 9 mg × 1 day) is “maintained during increasing doses”. Further, the “episode of pain, nausea, vomiting and photophobia” value in [3] (setting [14]) is “single episode of pain”. Also, the “symptom return during treatment” value in data set [3] (setting [14]) is “single episode of symptom return”. Besides, the “symptoms (headache, nausea, vomiting, vertigo, photophobia)” value in data set [3] (Patient 8, i.v., first dose of 3 mg) is on record as “decrease in all symptoms”. In addition, the “tolerance of initial dose” value in [3] (i.v., initial dose 1 mg) is listed as “well tolerated”. The “cumulative dose well tolerated” value in data set [3] (i.v., over 18 days) is ≤ 177 mg. Moreover, the “dose administered without any signs of intolerance, daily” value in data set [3] (i.v., patients) was ≤ 14 mg/day. For the same compound, the “dose well tolerated, repeated doses” value in [3] (i.v., repeated doses, patients with headaches) is reported as “up to 7 mg b.i.d”. Besides, in data set [3] (repeated i.v. doses, marked diminution of headache and associated symptoms, of three patients), the “number of patients responding to repeated doses” value is reported as “two of the three patients”. Further, the “headache and associated symptoms” value in [3] (repeated i.v. doses, two of the three patients (Patients Nos. 6 and 8)) is “marked diminution of headache and associated symptoms”. For the same compound, the “pain intensity and associated symptoms” value in [3] (some patients, i.v. doses of 3 mg or greater) was “pain intensity and associated symptoms were ameliorated”. The LD50 is 32 mg/kg in “LD50 in the mouse” (ip), 24 mg/kg in “LD50 in the mouse” (iv), 90 mg/kg in “LD50 in the mouse” (oral) and 14 mg/kg in “LD50 in the rat”. In addition, in the data set on mouse, the toxicity in words entry was “relatively non-toxic”. The “potency relative to metoclopramide” value in data set [9] is “many times more potent than metoclopramide”.

Take `CCN(CC)CCNC(=O)c1cc(Cl)c(N)cc1OC` [metoclopramide]: the “potency as 5-HT M-receptor antagonist” value at 5-HT M-receptor [11] (literature) is “potent 5-HT M-receptor antagonist”. The “pA2 value (5-HT)” value at 5-HT M-receptor [11] (reported by J. R. Fozard et al, Eur. J. Pharmacol. 1979 / 1978) is given as 7.2. In addition, the “relief of acute migraine attack” value with acute migraine attack was “immediate relief of acute migraine attack”.

For the compound `Cc1cc(C)cc(C(=O)O[C@H]2C[C@H]3CC[C@@H](C2)N3C)c1` [tropyl 3,5-dimethylbenzoate], at 5-HT M-receptor [1] (isolated rabbit heart, negative log of molar concentration of antagonist reducing effect of twice the ED50 of 5-HT to that of the ED50, read-out: pA2 5-HT (converted)), the Kb is 0.001 µM. The IC50 worked out at 34.2 µM with guinea-pig taenia caeci; 9.59 µM in the data set on guinea-pig ileum [12]; 0.00103 µM in data set [8] (rabbit heart, agonist 5-HT, read-out: Concentration to inhibit standard response to stimulants by 50% (IC50)). The LD50 came out at 47 mg/kg in “LD50 in the mouse” (ip), 17 mg/kg in “LD50 in the mouse” (iv), 116 mg/kg in “LD50 in the mouse” (oral) and 9 mg/kg in the data set “LD50 in the rat”. Also, the toxicity in words entry with mouse is “relatively non-toxic”. The “potency relative to metoclopramide” value in data set [9] is listed as “many times more potent than metoclopramide”.

(Values after patent US4585866A, “Treatment of migraine with substituted tropyl benzoate derivatives” (Merrell Dow Pharmaceuticals Inc., priority 1984, dated 1986).)
